Measured values published in patent US11897862B2 (Gilead Sciences, Inc., priority 2022, dated 2024).

Tests used:
IKZF1 = biological target: T1, IKZF1 (Homo sapiens, UniProt Q13422+Q96SW2); test: HEK293 HiBiT in vitro degradation of IKZF1; format: cell-based; details: for DC50: 18-24 hr incubation, normalized to DMSO control, read-out: IKZF1 EC50; for Dmax: HEK293, HEK293 HiBiT
T1 construct: expressed in transfected cells
Summary of the method: (§1)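 Flp-In T-REx HEK293 pools stably expressing C-terminal HiBiT-tagged IKZF1, IKZF2 or SALL4 (single-copy, Tet-On), induced overnight with […] doxycycline. Cells exposed to serially diluted compounds for 18-24 hr at 37° C. Nano-Glo lytic luminescence gave EC50 and Dmax.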

IKZF2 = IKZF2 (Homo sapiens, UniProt Q96SW2+Q9UKS7); test: HEK293 HiBiT in vitro degradation of IKZF2; format: cell-based; set-up: expressed in transfected cells; details: for Dmax: HEK293, HEK293 HiBiT; for Dmax / IKZF2 Dmax: maximum degradation at the highest concentration tested; for DC50 / IKZF2 Dmax: HEK293 HiBiT; for DC50: 18-24 hr incubation, normalized to DMSO control, read-out: IKZF2 EC50
Chain of IKZF2 (Q9UKS7 1-500 isoform Q9UKS7-2): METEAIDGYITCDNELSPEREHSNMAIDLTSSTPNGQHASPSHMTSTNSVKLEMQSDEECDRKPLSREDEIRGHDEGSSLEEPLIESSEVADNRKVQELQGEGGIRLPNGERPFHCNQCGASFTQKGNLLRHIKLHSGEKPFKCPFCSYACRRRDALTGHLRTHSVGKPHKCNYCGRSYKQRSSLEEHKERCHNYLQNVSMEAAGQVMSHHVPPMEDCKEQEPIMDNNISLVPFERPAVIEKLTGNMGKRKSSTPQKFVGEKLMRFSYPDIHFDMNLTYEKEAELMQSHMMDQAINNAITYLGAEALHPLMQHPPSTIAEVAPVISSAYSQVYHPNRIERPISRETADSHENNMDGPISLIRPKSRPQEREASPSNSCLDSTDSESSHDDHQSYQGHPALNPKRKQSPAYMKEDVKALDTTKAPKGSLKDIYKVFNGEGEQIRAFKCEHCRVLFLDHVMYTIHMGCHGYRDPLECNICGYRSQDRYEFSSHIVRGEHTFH
Chain of IKZF2 (Q96SW2 whole entry): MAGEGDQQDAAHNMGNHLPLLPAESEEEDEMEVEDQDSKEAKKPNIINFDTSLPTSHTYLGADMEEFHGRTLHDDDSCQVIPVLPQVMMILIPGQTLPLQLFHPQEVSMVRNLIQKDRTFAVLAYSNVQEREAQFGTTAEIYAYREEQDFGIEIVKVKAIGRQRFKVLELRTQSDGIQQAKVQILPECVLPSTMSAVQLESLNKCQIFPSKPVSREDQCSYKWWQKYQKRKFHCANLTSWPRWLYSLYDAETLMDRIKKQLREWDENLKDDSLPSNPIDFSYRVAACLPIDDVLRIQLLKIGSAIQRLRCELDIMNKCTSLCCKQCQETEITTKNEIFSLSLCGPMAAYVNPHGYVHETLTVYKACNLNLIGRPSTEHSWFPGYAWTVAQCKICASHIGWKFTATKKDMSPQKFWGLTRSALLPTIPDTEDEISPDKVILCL
Chain of IKZF2 (Q16531 whole entry partner): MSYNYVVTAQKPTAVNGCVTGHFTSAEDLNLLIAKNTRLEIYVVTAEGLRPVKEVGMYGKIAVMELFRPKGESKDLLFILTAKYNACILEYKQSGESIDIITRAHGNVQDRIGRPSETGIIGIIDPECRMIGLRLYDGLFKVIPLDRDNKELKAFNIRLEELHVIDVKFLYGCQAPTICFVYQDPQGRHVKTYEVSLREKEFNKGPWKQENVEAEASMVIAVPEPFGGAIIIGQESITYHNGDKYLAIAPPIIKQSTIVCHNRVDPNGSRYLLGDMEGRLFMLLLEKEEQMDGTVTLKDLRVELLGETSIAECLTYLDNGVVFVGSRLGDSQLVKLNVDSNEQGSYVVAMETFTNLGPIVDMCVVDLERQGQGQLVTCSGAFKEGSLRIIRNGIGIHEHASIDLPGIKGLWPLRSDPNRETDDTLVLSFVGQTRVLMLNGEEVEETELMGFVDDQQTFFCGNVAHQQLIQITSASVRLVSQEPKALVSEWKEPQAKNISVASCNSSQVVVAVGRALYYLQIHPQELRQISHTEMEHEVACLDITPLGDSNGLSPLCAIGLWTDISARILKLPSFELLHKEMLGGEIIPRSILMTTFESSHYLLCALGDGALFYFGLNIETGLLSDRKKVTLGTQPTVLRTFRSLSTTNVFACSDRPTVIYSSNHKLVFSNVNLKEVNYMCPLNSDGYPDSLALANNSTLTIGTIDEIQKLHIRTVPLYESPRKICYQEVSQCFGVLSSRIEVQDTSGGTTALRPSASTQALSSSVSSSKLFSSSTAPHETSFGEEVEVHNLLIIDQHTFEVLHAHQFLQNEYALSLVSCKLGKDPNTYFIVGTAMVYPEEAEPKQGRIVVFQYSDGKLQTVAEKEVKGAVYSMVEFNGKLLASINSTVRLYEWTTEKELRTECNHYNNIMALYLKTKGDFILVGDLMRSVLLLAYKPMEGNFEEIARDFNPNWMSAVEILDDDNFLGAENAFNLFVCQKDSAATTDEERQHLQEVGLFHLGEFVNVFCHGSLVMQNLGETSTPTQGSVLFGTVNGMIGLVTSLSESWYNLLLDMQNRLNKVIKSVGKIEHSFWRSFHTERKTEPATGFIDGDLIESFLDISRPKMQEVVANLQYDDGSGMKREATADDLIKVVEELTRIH
Summary of the method: as §1

[1] = maximum degradation at the highest concentration tested

T1 sequence (Q13422 whole entry): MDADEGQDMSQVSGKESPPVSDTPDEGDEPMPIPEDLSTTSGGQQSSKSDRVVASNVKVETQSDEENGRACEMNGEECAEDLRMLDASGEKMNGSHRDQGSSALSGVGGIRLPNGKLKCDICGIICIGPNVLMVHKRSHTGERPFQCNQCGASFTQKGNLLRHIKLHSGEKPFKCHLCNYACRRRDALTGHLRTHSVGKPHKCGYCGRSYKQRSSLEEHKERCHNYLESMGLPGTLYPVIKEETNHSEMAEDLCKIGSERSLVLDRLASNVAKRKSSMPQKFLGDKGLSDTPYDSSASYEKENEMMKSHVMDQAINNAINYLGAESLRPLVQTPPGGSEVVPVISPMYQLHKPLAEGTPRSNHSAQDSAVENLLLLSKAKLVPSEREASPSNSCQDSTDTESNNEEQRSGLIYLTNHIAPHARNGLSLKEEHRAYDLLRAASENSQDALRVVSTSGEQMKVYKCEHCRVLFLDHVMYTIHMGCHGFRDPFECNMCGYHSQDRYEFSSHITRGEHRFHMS
T1 sequence (Q96SW2 whole entry): as the sequence (Q96SW2 whole entry) above
T1 sequence (Q16531 whole entry partner): as the sequence (Q16531 whole entry partner) above

| SMILES | DC50 (IKZF1; HEK293 HiBiT) | Dmax (IKZF2) | DC50 (IKZF2) | IKZF2 Dmax (IKZF2) | Dmax (IKZF1; [1]) | IKZF1 Dmax (IKZF1; HEK293 HiBiT, maximum degradation at the highest concentration tested) |
| --- | --- | --- | --- | --- | --- | --- |
| CC(CC(F)(F)F)N[C@H]1CCCC[C@@H]1Cc1ccc2c(c1)CN(C1CCC(=O)NC1=O)C2=O (single isomer, unassigned) [Example 249] | > 1000 nM | 97% | 4 nM |  |  |  |
| O=C1CCC(N2Cc3cc(C[C@H]4CCCC[C@@H]4N4CC(OCc5ccccc5)C4)ccc3C2=O)C(=O)N1 (stereo partly drawn) [Example 33, 3-(5-(((1R,2S)-2-(3-(benzyloxy)azetidin-1-yl)cyclohexyl)methyl)-1-oxoisoindolin-2-yl)piperidine-2,6-dione] | > 1000 nM | 82% | 18 nM |  |  |  |
| O=C1CCC(N2Cc3cc(C[C@H]4OCCC[C@@H]4NC4CCC(C(F)(F)F)CC4)ccc3C2=O)C(=O)N1 (single isomer, unassigned) [Example 357] | 465 nM |  | 23 nM | 89% | 40% |  |
| O=C1CCC(N2Cc3cc(C[C@H]4CCCC[C@@H]4NCc4ncccc4F)ccc3C2=O)C(=O)N1 (stereo partly drawn) [Example 50, 3-(5-(((1R,2S)-2-(((3-fluoropyridin-2-yl)methyl)amino)cyclohexyl)methyl)-1-oxoisoindolin-2-yl)piperidine-2,6-dione] | > 1000 nM | 57% | 111 nM |  |  |  |
| CCC(C)N[C@H]1CCCC[C@@H]1Cc1ccc2c(c1)CN(C1CCC(=O)NC1=O)C2=O (single isomer, unassigned) [Example 300] | > 1000 nM |  | 4 nM | 97% |  |  |
| CC(C)N[C@H]1CCC(F)(F)C[C@@H]1Cc1ccc2c(c1)CN(C1CCC(=O)NC1=O)C2=O (stereo partly shown) [Example 315] | > 1000 nM | 88% | 28 nM |  |  |  |
| O=C1CCC(N2Cc3cc(C[C@H]4CC[C@@H](F)C[C@@H]4NC4CCC(F)(F)CC4)ccc3C2=O)C(=O)N1 (stereo partly shown) [Example 354] | 30 nM | 93% | 3 nM |  | 32% |  |
| O=C1CCC(N2Cc3cc(C[C@H]4CCCC[C@@H]4NCc4ccccc4)ccc3C2=O)C(=O)N1 (single isomer, unassigned) [Example 25] | > 1000 nM |  | 23 nM |  |  |  |
| CC(N[C@H]1CCCC[C@@H]1Cc1ccc2c(c1)CN(C1CCC(=O)NC1=O)C2=O)C1(C(F)F)CC1 (stereo partly shown) [Example 311] | > 1000 nM | 95% | 11 nM |  |  |  |
| O=C1CCC(N2Cc3cc(C[C@H]4CCCC[C@@H]4N4CC(c5ccccc5)C4)ccc3C2=O)C(=O)N1 (stereo partly drawn) [Example 55, 3-(1-oxo-5-(((1R,2S)-2-(3-phenylazetidin-1-yl)cyclohexyl)methyl)isoindolin-2-yl)piperidine-2,6-dione] | > 1000 nM | 87% | 25 nM |  |  |  |
| CS(=O)(=O)c1ccc(CN[C@H]2CCCC[C@@H]2Cc2ccc3c(c2)CN(C2CCC(=O)NC2=O)C3=O)cc1 (stereo partly drawn) [Example 12, 3-(5-(((1R,2S)-2-((4-(methylsulfonyl)benzyl)amino)cyclohexyl)methyl)-1-oxoisoindolin-2-yl)piperidine-2,6-dione] | > 1000 nM | 85% | 106 nM |  |  |  |
| N#Cc1ccc(CN[C@H]2CCCC[C@@H]2Cc2ccc3c(c2)CN(C2CCC(=O)NC2=O)C3=O)c(F)c1 (stereo partly drawn) [Example 17, 4-((((1S,2R)-2-((2-(2,6-dioxopiperidin-3-yl)-1-oxoisoindolin-5-yl)methyl)cyclohexyl)amino)methyl)-3-fluorobenzonitrile] | > 1000 nM | 77% | 70 nM |  |  |  |
| O=C1CCC(N2Cc3cc(C[C@H]4CCCC[C@@H]4NCc4ccc(F)cc4F)ccc3C2=O)C(=O)N1 (stereo partly drawn) [Example 19, 3-(5-(((1R,2S)-2-((2,4-difluorobenzyl)amino)cyclohexyl)methyl)-1-oxoisoindolin-2-yl)piperidine-2,6-dione] | > 1000 nM | 89% | 30 nM |  |  |  |
| [2H]c1c([2H])c([2H])c(CN(Cc2c([2H])c([2H])c([2H])c([2H])c2[2H])[C@H]2CCCC[C@@H]2Cc2ccc3c(c2)CN(C2CCC(=O)NC2=O)C3=O)c([2H])c1[2H] (stereo partly drawn) [Example 26, 3-(5-(((1R,2S)-2-(bis((phenyl-d5)methyl)amino)cyclohexyl)methyl)-1-oxoisoindolin-2-yl)piperidine-2,6-dione] | > 1000 nM | 57% | 530 nM |  |  |  |
| O=C1CCC(N2Cc3cc(C[C@H]4CCCC[C@@H]4NCc4ncc(F)cc4F)ccc3C2=O)C(=O)N1 (stereo partly drawn) [Example 44, 3-(5-(((1R,2S)-2-(((3,5-difluoropyridin-2-yl)methyl)amino)cyclohexyl)methyl)-1-oxoisoindolin-2-yl)piperidine-2,6-dione] | > 1000 nM | 60% | 67 nM |  |  |  |
| O=C1CCC(N2Cc3cc(C[C@H]4CCCC[C@@H]4NCc4ccccc4)c(F)cc3C2=O)C(=O)N1 (stereo partly drawn) [Example 4, 3-(5-(((1R,2S)-2-(benzylamino)cyclohexyl)methyl)-6-fluoro-1-oxoisoindolin-2-yl)piperidine-2,6-dione] | 130 nM | 92% | 58 nM |  | 26% |  |

Further lines, results first:

| DC50 (IKZF1; HEK293 HiBiT) | Dmax (IKZF2) | DC50 (IKZF2) | IKZF2 Dmax (IKZF2) | Dmax (IKZF1; [1]) | IKZF1 Dmax (IKZF1; HEK293 HiBiT, maximum degradation at the highest concentration tested) | SMILES |
| --- | --- | --- | --- | --- | --- | --- |
| > 1000 nM | 88% | 95 nM |  |  |  | CC1(C)OCC(N[C@H]2CCCC[C@@H]2Cc2ccc3c(c2)CN(C2CCC(=O)NC2=O)C3=O)CO1 (stereo partly shown) [Example 161] |
| > 1000 nM | 89% | 15 nM |  |  |  | O=C1CCC(N2Cc3cc(C[C@H]4CCCC[C@@H]4N[C@@H]4CCC(F)(F)C4)ccc3C2=O)C(=O)N1 (relative stereo) [Example 302, 3-(5-(((1R,2S)-rel-2-(((R)-3,3-difluorocyclopentyl)amino)cyclohexyl)methyl)-1-oxoisoindolin-2-yl)piperidine-2,6-dione] |
| > 1000 nM |  | 95 nM | 85% |  |  | O=C1CCC(N2Cc3c(ccc(C[C@H]4OCCC[C@@H]4NC4CCCOC4)c3F)C2=O)C(=O)N1 (single isomer, unassigned) [Example 263] |
| 72 nM | 91% | 11 nM |  | 50% |  | O=C1CCC(N2Cc3c(ccc(C[C@H]4OCCC[C@@H]4NC4CC5(CCCCC5)C4)c3F)C2=O)C(=O)N1 (stereo partly shown) [Example 158] |
| > 1000 nM | 96% | 7 nM |  |  |  | O=C1CCC(N2Cc3cc(C[C@H]4CCCC[C@@H]4NC4CC5CCC4O5)ccc3C2=O)C(=O)N1 (stereo partly shown) [Example 193] |
| > 1000 nM | 93% | 11 nM |  |  |  | CC(CCC(F)F)N[C@H]1CCCO[C@@H]1Cc1ccc2c(c1F)CN(C1CCC(=O)NC1=O)C2=O (stereo partly drawn) [Example 320, 3-(5-(((2R,3S)-3-((5,5-difluoropentan-2-yl)amino)tetrahydro-2H-pyran-2-yl)methyl)-4-fluoro-1-oxoisoindolin-2-yl)piperidine-2,6-dione] |
| > 1000 nM | 98% | 58 nM |  |  |  | O=C1CCC(N2Cc3c(ccc(C[C@H]4OCCC[C@@H]4NC4CCc5cn[nH]c5C4)c3F)C2=O)C(=O)N1 (stereo partly shown) [Example 374] |
| 66 nM | 96% | 3 nM |  | 30% |  | CC(CC1CC1)N[C@H]1CCCC[C@@H]1Cc1ccc2c(c1)CN(C1CCC(=O)NC1=O)C2=O (single isomer, unassigned) [Example 230] |
| > 1000 nM | 96% | 5 nM |  |  |  | O=C1CCC(N2Cc3cc(C[C@H]4CCCC[C@@H]4NC4CCCOC4)ccc3C2=O)C(=O)N1 (single isomer, unassigned) [Example 260] |
| 231 nM | 100% | 18 nM |  | 34% |  | O=C1CCC(N2Cc3cc(C[C@H]4CCCC[C@@H]4NC4CCc5cn[nH]c5C4)ccc3C2=O)C(=O)N1 (single isomer, unassigned) [Example 358] |
| 68 nM | 97% | 3 nM |  | 26% |  | O=C1CCC(N2Cc3cc(C[C@H]4CCCC[C@@H]4NC4CCC(C(F)(F)F)CC4)ccc3C2=O)C(=O)N1 (single isomer, unassigned) [Example 121] |
| 57 nM |  | 2 nM | 97% |  | 44% | O=C1CCC(N2Cc3c(ccc(C[C@H]4CCCC[C@@H]4NC4CCOC4)c3F)C2=O)C(=O)N1 (stereo partly shown) [Example 190] |
| 51 nM | 95% | 3 nM |  | 30% |  | CC1CCC(N[C@H]2CCCC[C@@H]2Cc2ccc3c(c2)CN(C2CCC(=O)NC2=O)C3=O)CC1 (single isomer, unassigned) [Example 279] |
| 229 nM | 94% | 47 nM |  | 34% |  | O=C1CCC(N2Cc3cc(C[C@H]4CCCC[C@@H]4NCC4CC4)ccc3C2=O)C(=O)N1 (stereo partly drawn) [Example 8, 3-(5-(((1R,2S)-2-((cyclopropylmethyl)amino)cyclohexyl)methyl)-1-oxoisoindolin-2-yl)piperidine-2,6-dione] |
| > 1000 nM | 81% | 91 nM |  |  |  | O=C1CCC(N2Cc3cc(C[C@H]4CCCC[C@@H]4NC4CCCCC4(F)F)ccc3C2=O)C(=O)N1 (stereo partly shown) [Example 111] |
| 50 nM | 96% | 3 nM |  | 45% |  | O=C1CCC(N2Cc3cc(C[C@H]4CCCC[C@@H]4NC4CCC(OC(F)F)CC4)ccc3C2=O)C(=O)N1 (stereo partly drawn) [Example 323, 3-(5-(((1R,2S)-2-((4-(difluoromethoxy)cyclohexyl)amino)cyclohexyl)methyl)-1-oxoisoindolin-2-yl)piperidine-2,6-dione] |
| > 1000 nM |  | 8 nM | 94% |  |  | CCC(C)N[C@H]1CCCO[C@@H]1Cc1ccc2c(c1F)CN(C1CCC(=O)NC1=O)C2=O (single isomer, unassigned) [Example 293] |
